Measured values reported in patent publication EP0061882A1, “Process for preparing isoxazol-3-ylcarboxamides” (ELI LILLY AND COMPANY, priority 1981, dated 1982).

Tests used:
Assay in all cases: broad spectrum greenhouse test, postemergence application
Type in all cases: in vivo
Settings in all cases: rated about 10-13 days after application, scale 1-5
Mustard = system: Mustard; parameters: key: 1 = normal plants; 5 = dead plants or no emergence
Text: (§1) A broad spectrum greenhouse test was run to show the activity of the acyloxadiazoles of formula III.
(§2) Square plastic pots were filled with a sterilized sandy loam soil and were planted to seeds of the various crops and weeds. Each pot was indi- viduall^y fertilized.
(§3) Test compounds of formula III were applied postemergence to some pots and preemergence to others. Postemergence applications of the compounds were sprayed over the emerged plants about 12 days after the seeds were planted. Preemergence applications were sprayed on the soil the day after the seeds were planted.
(§4) Each test compound was dissolved in 1:1 acetone:ethanol at the rate of 2 g. per 100 ml. The solution also contained about 2 g. per 100 ml. of an anionic-nonionic surfactant blend. One ml. of the solution was diluted with deionized water to obtain the dilution desired. The.appropriate amount of the solution was applied to each pot.
(§5) After the compounds were applied, the pots were moved to the greenhouse, watered as necessary, and observed and rated about 10-13 days after application of the compounds. Untreated control plants were used as standards in every test.

Velvetleaf = system: Velvetleaf; parameters: key: 1 = normal plants; 5 = dead plants or no emergence
Text: as §1, §2, §3, §4, §5

Pigweed = system: Pigweed; parameters: key: 1 = normal plants; 5 = dead plants or no emergence
Text: as §1, §2, §3, §4, §5

Zinnia = system: Zinnia; parameters: key: 1 = normal plants; 5 = dead plants or no emergence
Text: as §1, §2, §3, §4, §5

Morningglory = system: Morningglory; parameters: key: 1 = normal plants; 5 = dead plants or no emergence
Text: as §1, §2, §3, §4, §5

Tomato = system: Tomato; parameters: key: 1 = normal plants; 5 = dead plants or no emergence
Text: as §1, §2, §3, §4, §5

Large Crabgrass = system: Large Crabgrass; parameters: key: 1 = normal plants; 5 = dead plants or no emergence
Text: as §1, §2, §3, §4, §5

Foxtail = system: Foxtail; parameters: key: 1 = normal plants; 5 = dead plants or no emergence
Text: as §1, §2, §3, §4, §5

Wild Oat = system: Wild Oat
Text: as §1, §2, §3, §4, §5

Barnyard Grass = system: Barnyard Grass
Text: as §1, §2, §3, §4, §5

CN(C)c1nc(CC(=O)C(C)(C)C)no1 [5-dimethylamino-3-(2,2-dimethylpropionyl-methyl)-1,2,4-oxadiazole]
Postemergence rating, Mustard (Mustard; Rate of Appln. 1 lbs./acre): 5 | Postemergence rating, Mustard (Mustard; Rate of Appln. 2 lbs./acre): 4 | Postemergence rating, Mustard (Mustard; Rate of Appln. 4 lbs./acre): 5 | Postemergence rating, Velvetleaf (Velvetleaf; Rate of Appln. 1 lbs./acre): 5 | Postemergence rating, Velvetleaf (Velvetleaf; Rate of Appln. 2 lbs./acre): 5 | Postemergence rating, Velvetleaf (Velvetleaf; Rate of Appln. 4 lbs./acre): 5 | Postemergence rating, Pigweed (Pigweed; Rate of Appln. 1 lbs./acre): 5 | Postemergence rating, Pigweed (Pigweed; Rate of Appln. 2 lbs./acre): 5 | Postemergence rating, Pigweed (Pigweed; Rate of Appln. 4 lbs./acre): 5 | Postemergence rating, Zinnia (Zinnia; Rate of Appln. 1 lbs./acre): 5 | Postemergence rating, Zinnia (Zinnia; Rate of Appln. 2 lbs./acre): 5 | Postemergence rating, Zinnia (Zinnia; Rate of Appln. 4 lbs./acre): 5 | Postemergence rating, Morningglory (Morningglory; Rate of Appln. 1 lbs./acre): 2 | Postemergence rating, Morningglory (Morningglory; Rate of Appln. 2 lbs./acre): 5 | Postemergence rating, Morningglory (Morningglory; Rate of Appln. 4 lbs./acre): 4 | Postemergence rating, Tomato (Tomato; Rate of Appln. 1 lbs./acre): 3 | Postemergence rating, Tomato (Tomato; Rate of Appln. 2 lbs./acre): 5 | Postemergence rating, Tomato (Tomato; Rate of Appln. 4 lbs./acre): 5 | Postemergence rating, Large Crabgrass (Large Crabgrass; Rate of Appln. 1 lbs./acre): 5 | Postemergence rating, Large Crabgrass (Large Crabgrass; Rate of Appln. 2 lbs./acre): 5 | Postemergence rating, Large Crabgrass (Large Crabgrass; Rate of Appln. 4 lbs./acre): 5 | Postemergence rating, Foxtail (Foxtail; Rate of Appln. 1 lbs./acre): 4 | Postemergence rating, Foxtail (Foxtail; Rate of Appln. 2 lbs./acre): 5 | Postemergence rating, Foxtail (Foxtail; Rate of Appln. 4 lbs./acre): 5 | Postemergence rating, Wild Oat (Wild Oat; Rate of Appln. 1 lbs./acre): 2 | Postemergence rating, Wild Oat (Wild Oat; Rate of Appln. 2 lbs./acre): 3 | Postemergence rating, Wild Oat (Wild Oat; Rate of Appln. 4 lbs./acre): 4 | Postemergence rating, Barnyard Grass (Barnyard Grass; Rate of Appln. 1 lbs./acre): 4 | Postemergence rating, Barnyard Grass (Barnyard Grass; Rate of Appln. 2 lbs./acre): 4 | Postemergence rating, Barnyard Grass (Barnyard Grass; Rate of Appln. 4 lbs./acre): 4
